Molecular target: T1, FAK (Mus musculus, UniProt P34152)
T1 construct: expressed in transfected cells; host or cells: FAK-/- (p53-/-) mouse embryonic fibroblasts stably re-expressing GFP-FAK
Experiment: GFP-FAK displacement from focal adhesions (fluorescence imaging, ImageJ quantification of focal adhesions per cell)
Format: cell-based
Settings: for IC50: GFP-FAK MEFs on fibronectin, 1 h incubation, focal adhesions per cell, Hill slope model, read-out: IC50 (displacement of FAK from focal adhesions, cellular IC50); for time to FAK displacement, vinculin localization not disturbed: GFP-FAK MEFs stably expressing mKate-vinculin, 40 µM; for time to FAK displacement from focal adhesions: 20 µM, time series; for concentration sufficient to induce FAK displacement: increasing concentrations
Source text: Ectopic expression of FRNK as a dominant negative inhibitor of FAK effectively blocks FAK dependent events. This type of interference seems to be used physiologically for regulation of FAK function in certain cell types (Taylor et al. 2001). However, there is currently no possibility to instantaneously interfere with FAK localization. Therefore, the inventors sought to identify small molecules to disrupt FAK mediated protein-protein-interactions. Towards this line they set-up a High Content Screen based on FAK-/- MEFs re-expressing GFP-FAK to visualize FAK localization at focal adhesions. Cells were seeded on fibronectin and incubated to allow adherence and spreading. Prior to fixation, cell nuclei were Hoechst stained. FAK containing focal adhesions and cells per field of view were quantified using a custom-made macro for ImageJ. The macro identifies focal adhesions due to local maxima of fluorescence intensity in the GFP-channel. Cells were counted in the Hoechst channel based on a binary image. Closely connected cell nuclei were separated by a watershed algorithm. […] Next, as a proof of principle GFP-FAK MEFs were transduced to express mKate2-tagged FRNK. mKate2-FRNK localizes to focal adhesions, where it efficiently displaces GFP-FAK (Figure 2). […] Consequently, the software can correctly identify FAK displacement from focal adhesions.
In order to find small molecules which induce the specific delocalization of FAK, two commercial compound libraries with more than 17.000 entries were screened. GFP-FAK MEFs were seeded on fibronectin in multi-well plates and compounds were transferred to the cells with a robot to a final concentration of 40 µM. Cells were incubated for 4 h and nuclei were Hoechst stained prior to fixation. Cells were imaged with an automated microscope and data were analyzed with the ImageJ macro. In the first screening round the macro identified 108 hits, which were curated by visual inspection to exclude instances of dramatic cell rounding and/or detachment. […] To validate these primary hits the inventors transduced the GFP-FAK MEFs to stably express mKate-vinculin, which serves as a FAK-independent marker of focal adhesions and facilitates indication of specific FAK displacement. On a first approach two compounds were identified, which induced FAK displacement within less than 1 h, while vinculin localization was not disturbed (Figure 4). […] Strikingly, they share distinct structural characteristics since both compounds have a NO2-group and an isosteric halogen-substituted phenyl- or thiophene-group (Figure 5).
In order to investigate the kinetics of FAK displacement at focal adhesions a time series was performed. GFP-FAK MEFs were treated with 20 µM of Mb31 or Mb36 and fixed after different time points. […] Mb36 kinetic was slightly slower with FAK delocalization after 20 min. In addition, GFP-FAK MEFs were treated with increasing concentrations of Mb31 or Mb36 to determine the minimum concentration required to interfere with FAK localization. Untreated or solvent (DMSO) treated cells show the expected localization of FAK at focal adhesions. […] Already 2 µM of Mb31 were sufficient to induce FAK displacement. […] Due to the faster kinetic and lower IC50 compared to Mb36 further studies were mainly performed using Mb31. […] In contrast, vinculin localization and the focal adhesion localization of talin, α-actinin, and zyxin is not disturbed (Figure 5 and Table 1).
About 17.000 compounds (40 µM working concentration) were screened for their ability to displace GFP-FAK from focal adhesions (FA) using an automated microscope (ImageXpress Micro, Molecular Devices, Ismaning, Germany) equipped with a Nikon 20x/0.75 NA CFI Plan Apo objective. […]

T1 sequence (P34152 whole entry): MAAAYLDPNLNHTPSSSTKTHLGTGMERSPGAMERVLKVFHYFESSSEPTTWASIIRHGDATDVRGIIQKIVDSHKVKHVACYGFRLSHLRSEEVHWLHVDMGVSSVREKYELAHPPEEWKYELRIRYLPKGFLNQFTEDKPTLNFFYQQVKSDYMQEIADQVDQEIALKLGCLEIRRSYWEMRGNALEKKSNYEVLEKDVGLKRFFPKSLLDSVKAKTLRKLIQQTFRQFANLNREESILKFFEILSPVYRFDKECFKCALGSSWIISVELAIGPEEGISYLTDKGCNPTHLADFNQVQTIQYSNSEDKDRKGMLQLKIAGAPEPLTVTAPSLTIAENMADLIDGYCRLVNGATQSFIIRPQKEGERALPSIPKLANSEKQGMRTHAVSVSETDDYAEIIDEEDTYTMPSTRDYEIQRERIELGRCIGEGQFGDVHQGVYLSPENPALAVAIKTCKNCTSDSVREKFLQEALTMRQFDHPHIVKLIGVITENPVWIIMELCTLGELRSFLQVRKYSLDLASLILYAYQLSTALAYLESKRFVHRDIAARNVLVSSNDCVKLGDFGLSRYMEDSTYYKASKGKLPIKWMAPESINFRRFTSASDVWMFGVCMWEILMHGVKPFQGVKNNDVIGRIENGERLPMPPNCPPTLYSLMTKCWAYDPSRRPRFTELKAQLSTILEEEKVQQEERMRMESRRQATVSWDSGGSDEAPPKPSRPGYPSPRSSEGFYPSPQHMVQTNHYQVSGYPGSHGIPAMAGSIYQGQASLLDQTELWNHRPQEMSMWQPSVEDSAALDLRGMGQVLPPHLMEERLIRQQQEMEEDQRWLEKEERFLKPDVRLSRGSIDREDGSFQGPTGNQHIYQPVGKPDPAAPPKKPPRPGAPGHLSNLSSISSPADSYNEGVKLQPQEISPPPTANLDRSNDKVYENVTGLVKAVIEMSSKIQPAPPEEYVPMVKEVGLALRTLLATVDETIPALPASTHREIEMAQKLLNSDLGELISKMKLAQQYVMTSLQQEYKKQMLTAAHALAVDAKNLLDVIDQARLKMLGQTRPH

IC50 [µM] | time to FAK displacement, vinculin localization not disturbed | time to FAK displacement from focal adhesions (GFP-FAK MEFs) [min] | concentration sufficient to induce FAK displacement (GFP-FAK MEFs) [µM] | concentration sufficient for efficient FAK displacement (second approach, narrower concentration range (1-5 µM)) | effect on FAK localization (GFP-FAK MEFs, 2 µM) | SMILES
~2 | less than 1 h | ≤ 5 | 2 | about 4 µM |  | O=[N+]([O-])C=Cc1cc(Br)cs1 [FootLocker 1, 4-bromo-2-(2-nitrovinyl)thiophene]
~4.1 | less than 1 h | 20 | 5 |  | no effect was observed | Nc1ccc(SC(C[N+](=O)[O-])c2ccc(Cl)cc2)cc1 (stereo not shown) [FootLocker 2, 4-{[1-(4-chlorophenyl)-2-nitroethyl]thio}aniline]

— EP2982368A1, “Small molecule compounds displacing focal adhesion core components” (Universität Konstanz, priority 2014, dated 2016)
